IC50 data for 19 compounds are collected here from patent publication US10125098B2, “Therapeutic compounds and methods of use thereof” (GENENTECH, INC., priority 2014, dated 2018).

Structures are written as SMILES. Where a name gives a salt, the structure may show the parent alone. Read-outs that look alike come from different tables or passages of the source.

For one data set, the target named is T1, human NaV1.7 (Homo sapiens, UniProt Q15858).
T1 construct: permanently transfected with an expression vector containing the full-length cDNA coding for the desired human sodium channel α-subunit; expressed in transfected cells; host or cells: HEK-293
Briefly: Patch voltage clamp electrophysiology assay (EP), NaV1.7. It is filed as cell-based. The note with it: HEK-293 cells stably expressing NaV1.7 with β1 subunit; whole-cell patch clamp, membrane potential −60 mV (inactivated state). In outline:
(§1)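 Percent block is the drop in sodium current after compound wash-on, measured by a test pulse following 20 ms at −150 mV from a −60 mV inactivating holding potential.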
On the technique in general: The patch-clamp technique gives a direct electrical read-out from membranes.

The target of another data set is T2, NaV1.5 (Homo sapiens, UniProt Q14524).
T2 construct: permanently transfected with an expression vector containing the full-length cDNA coding for the desired human sodium channel α-subunit; expressed in transfected cells; host or cells: HEK-293
Briefly: Patch voltage clamp electrophysiology assay (EP), NaV1.5. It is filed as cell-based. The note with it: HEK-293 cells stably expressing NaV1.5 with β1 subunit, whole-cell patch clamp, membrane potential −60 mV (inactivated state). Summed up: as §1

The target of the next data set is T3, hNav1.7 (Homo sapiens, UniProt Q15858).
T3 construct: expressed in transfected cells
Kind of data set: Tritiated compound binding (LBA) to membranes from cells expressing hNav1.7 and the β1 subunit, competitive binding. Particulars: competitive binding vs 100 pM [3H]compound, 18 h, room temperature, membranes with hNav1.7 and β1 subunit. In outline: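 Competitive displacement of 100 pM [3H]compound (tritiated methyl analogue of formula (I)) from hNav1.7/β1 membranes, 18 h at room temperature in NaCl/Tris pH 7.4 buffer containing 0.01% BSA. 1 μM unlabeled compound set non-specific binding. Bound label quantified by scintillation after filtration; 4-parameter fit gave IC50.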

Where [1] appears, read: human, HEK-293 cells stably expressing human NaV1.5 with β1 subunit, pH 7.4.

T2 sequence (Q14524 whole entry): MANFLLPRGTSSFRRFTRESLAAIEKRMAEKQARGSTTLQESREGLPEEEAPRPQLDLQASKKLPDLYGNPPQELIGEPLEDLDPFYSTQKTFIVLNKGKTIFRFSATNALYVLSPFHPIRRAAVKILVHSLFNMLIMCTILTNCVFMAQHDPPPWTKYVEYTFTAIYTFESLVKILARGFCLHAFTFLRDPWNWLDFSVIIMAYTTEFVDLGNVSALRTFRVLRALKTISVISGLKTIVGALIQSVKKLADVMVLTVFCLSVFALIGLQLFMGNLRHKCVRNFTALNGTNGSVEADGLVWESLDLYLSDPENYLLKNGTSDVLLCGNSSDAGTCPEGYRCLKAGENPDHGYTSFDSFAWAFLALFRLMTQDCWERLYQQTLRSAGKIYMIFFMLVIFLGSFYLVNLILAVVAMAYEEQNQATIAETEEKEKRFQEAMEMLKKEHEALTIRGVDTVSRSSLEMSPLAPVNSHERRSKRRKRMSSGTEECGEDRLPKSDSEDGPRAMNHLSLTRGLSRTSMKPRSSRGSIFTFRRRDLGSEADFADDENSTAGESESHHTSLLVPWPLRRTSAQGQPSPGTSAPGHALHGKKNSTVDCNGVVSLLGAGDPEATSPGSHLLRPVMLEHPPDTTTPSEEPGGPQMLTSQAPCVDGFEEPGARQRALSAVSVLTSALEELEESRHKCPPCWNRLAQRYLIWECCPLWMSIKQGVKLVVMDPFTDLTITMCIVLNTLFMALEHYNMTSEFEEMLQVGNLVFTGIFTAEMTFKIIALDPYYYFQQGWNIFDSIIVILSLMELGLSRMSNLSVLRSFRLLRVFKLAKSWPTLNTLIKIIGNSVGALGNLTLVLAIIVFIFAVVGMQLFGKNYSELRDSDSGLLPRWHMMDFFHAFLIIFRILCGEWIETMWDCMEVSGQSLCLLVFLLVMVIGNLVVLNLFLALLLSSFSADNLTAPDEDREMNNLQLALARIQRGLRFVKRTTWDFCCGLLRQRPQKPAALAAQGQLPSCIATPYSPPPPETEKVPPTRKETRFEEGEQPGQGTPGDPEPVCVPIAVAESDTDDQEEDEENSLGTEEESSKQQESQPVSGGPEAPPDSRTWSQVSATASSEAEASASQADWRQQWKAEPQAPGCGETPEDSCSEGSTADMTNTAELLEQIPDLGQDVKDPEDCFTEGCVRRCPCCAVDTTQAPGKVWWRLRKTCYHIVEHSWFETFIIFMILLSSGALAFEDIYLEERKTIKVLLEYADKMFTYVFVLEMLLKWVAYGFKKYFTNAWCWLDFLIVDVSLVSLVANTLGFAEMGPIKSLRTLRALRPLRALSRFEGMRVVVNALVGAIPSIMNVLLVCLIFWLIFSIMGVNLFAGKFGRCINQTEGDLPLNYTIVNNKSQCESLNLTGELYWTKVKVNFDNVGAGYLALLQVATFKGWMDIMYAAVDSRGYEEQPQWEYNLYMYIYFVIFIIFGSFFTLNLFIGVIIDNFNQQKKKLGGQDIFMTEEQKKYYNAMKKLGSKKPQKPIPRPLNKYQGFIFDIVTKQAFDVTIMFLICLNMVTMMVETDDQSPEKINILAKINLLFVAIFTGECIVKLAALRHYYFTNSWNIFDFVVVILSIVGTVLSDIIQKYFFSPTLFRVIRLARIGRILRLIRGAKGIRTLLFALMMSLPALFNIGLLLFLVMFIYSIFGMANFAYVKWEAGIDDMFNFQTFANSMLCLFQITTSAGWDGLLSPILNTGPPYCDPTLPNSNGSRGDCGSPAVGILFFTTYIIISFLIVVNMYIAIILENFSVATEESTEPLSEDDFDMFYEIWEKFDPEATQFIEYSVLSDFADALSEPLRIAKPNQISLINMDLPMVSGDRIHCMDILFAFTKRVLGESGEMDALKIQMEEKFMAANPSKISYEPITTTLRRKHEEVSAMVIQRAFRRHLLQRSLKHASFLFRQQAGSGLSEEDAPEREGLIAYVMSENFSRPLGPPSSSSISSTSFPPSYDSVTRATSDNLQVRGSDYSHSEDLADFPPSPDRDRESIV
T3 sequence (Q15858 1-1977 isoform Q15858-3): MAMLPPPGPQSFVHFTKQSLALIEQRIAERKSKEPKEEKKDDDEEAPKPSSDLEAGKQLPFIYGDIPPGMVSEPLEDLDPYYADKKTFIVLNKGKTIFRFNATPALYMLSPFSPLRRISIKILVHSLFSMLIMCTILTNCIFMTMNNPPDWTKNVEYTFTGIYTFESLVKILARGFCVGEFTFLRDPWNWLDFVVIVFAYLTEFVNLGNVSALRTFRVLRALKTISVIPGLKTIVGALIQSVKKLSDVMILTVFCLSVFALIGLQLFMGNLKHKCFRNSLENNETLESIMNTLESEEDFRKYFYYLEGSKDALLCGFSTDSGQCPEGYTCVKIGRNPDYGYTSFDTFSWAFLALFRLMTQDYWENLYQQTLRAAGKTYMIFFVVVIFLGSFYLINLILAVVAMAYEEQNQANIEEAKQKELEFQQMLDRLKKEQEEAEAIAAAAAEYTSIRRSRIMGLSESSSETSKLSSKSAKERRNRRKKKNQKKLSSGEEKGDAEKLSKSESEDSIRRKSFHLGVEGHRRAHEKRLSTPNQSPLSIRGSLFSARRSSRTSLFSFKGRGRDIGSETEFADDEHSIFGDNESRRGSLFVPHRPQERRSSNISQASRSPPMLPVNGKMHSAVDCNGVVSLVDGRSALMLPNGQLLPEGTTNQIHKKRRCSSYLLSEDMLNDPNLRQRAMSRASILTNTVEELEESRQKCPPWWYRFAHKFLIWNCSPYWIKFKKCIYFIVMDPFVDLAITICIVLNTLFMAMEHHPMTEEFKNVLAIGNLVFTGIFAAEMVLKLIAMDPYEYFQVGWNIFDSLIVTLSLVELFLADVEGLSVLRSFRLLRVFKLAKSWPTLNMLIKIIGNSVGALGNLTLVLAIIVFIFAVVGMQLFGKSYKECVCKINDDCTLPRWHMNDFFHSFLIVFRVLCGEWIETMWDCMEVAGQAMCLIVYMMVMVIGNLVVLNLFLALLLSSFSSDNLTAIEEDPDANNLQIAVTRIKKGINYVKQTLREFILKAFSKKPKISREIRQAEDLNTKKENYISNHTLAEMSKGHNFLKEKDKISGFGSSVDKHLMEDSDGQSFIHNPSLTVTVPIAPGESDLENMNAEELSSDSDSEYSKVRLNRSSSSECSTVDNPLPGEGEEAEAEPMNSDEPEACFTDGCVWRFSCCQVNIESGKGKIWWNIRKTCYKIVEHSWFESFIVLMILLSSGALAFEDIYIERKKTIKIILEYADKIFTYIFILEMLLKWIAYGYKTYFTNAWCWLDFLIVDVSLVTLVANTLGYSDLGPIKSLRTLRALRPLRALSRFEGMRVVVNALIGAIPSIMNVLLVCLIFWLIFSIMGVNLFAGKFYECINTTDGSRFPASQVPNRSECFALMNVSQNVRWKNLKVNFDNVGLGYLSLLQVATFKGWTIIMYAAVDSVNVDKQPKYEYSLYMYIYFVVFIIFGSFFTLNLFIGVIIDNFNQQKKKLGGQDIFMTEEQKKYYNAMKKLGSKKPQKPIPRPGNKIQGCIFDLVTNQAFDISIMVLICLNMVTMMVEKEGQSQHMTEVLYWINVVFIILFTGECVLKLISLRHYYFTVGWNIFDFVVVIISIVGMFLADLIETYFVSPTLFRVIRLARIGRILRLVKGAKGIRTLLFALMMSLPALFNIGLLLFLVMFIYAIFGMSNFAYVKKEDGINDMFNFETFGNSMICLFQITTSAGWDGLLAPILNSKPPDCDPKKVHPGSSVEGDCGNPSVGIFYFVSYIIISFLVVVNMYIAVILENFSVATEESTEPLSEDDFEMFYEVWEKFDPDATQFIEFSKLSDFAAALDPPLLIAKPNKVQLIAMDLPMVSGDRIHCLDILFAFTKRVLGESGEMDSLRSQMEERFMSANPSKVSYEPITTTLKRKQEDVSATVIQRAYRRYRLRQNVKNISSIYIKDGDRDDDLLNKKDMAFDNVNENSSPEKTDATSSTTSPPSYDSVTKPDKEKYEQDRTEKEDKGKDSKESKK
T3 sequence (Q07699 19-218 partner): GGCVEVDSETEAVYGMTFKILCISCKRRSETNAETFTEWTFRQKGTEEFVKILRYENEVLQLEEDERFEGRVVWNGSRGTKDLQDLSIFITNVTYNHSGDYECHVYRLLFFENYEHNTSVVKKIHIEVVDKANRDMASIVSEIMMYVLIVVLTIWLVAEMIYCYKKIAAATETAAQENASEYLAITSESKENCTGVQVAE
T1 sequence (Q15858 1-1977 isoform Q15858-3): as the sequence (Q15858 1-1977 isoform Q15858-3) above
T1 sequence (Q07699 19-218 partner): as the sequence (Q07699 19-218 partner) above

Take `O=C(O)C[C@H](NC(=O)c1cc(C2CC2)c(OCC23CC4CC(CC(C4)C2)C3)cc1F)C(=O)O` [Example 84, (S)-2-(4-(adamantan-1-ylmethoxy)-5-cyclopropyl-2-fluorobenzamido)succinic acid]: the values for the IC50 against human NaV1.7, at NaV1.5 (setting [1]) and on hNav1.7 were 17000 nM, at least 30000 nM and at least 10000 nM, respectively.

As to `CC1(C)SCN(C(=O)c2cc(C3CC3)c(OCC34CC5CC(CC(C5)C3)C4)cc2F)[C@@H]1C(=O)O` [Example 155, (4R)-3-[4-(1-adamantylmethoxy)-5-cyclopropyl-2-fluoro-benzoyl]-5,5-dimethyl-thiazolidine-4-carboxylic acid], the IC50 against human NaV1.7 turned out to be 900 nM; on NaV1.5 (read-out: Nav1.5), 9300 nM; at hNav1.7, 68 nM.

For the compound `C[C@@H]1SCN(C(=O)c2cc(C3CC3)c(OCC34CC5CC(CC(C5)C3)C4)cc2F)[C@@H]1C(=O)O` [Example 142a, (4R,5S)-3-[4-(1-adamantylmethoxy)-5-cyclopropyl-2-fluoro-benzoyl]-5-methyl-thiazolidine-4-carboxylic acid], the IC50 against human NaV1.7 was 1500 nM; at NaV1.5 (read-out: Nav1.5) it was 17000 nM; at hNav1.7 it was 250 nM.

Regarding `O=C(O)[C@@H]1CCCN1C(=O)c1cc(C2CC2)c(OC2C3CC4CC(C3)CC2C4)cc1F` (stereo partly drawn) [Example 70, (S)-1-(4-(adamantan-2-yloxy)-5-cyclopropyl-2-fluorobenzoyl)pyrrolidine-2-carboxylic acid], the IC50 against human NaV1.7 was 1600 nM; against NaV1.5 (setting [1]), at least 30000 nM; at hNav1.7, 310 nM.

On to `O=C(O)[C@@H]1CCCN1C(=O)c1cc(C2CC2)c(OC[C@H]2CCN(C(c3ccccc3)c3ccccc3)C2)cc1F` (single isomer, unassigned) [Example 139a], for which the values for the IC50 at human NaV1.7, on NaV1.5 (read-out: Nav1.5) and on hNav1.7 were 5000 nM, 25000 nM and 650 nM, respectively.

As for `O=C(O)[C@@H]1C[C@H]2C[C@H]2N1C(=O)c1cc(C2CC2)c(OCC23CC4CC(CC(C4)C2)C3)cc1F` [Example 60, (1R, 3S, 5R)-2-(4-((adamantan-1-yl)methoxy)-5-cyclopropyl-2-fluorobenzoyl)-2-azabicyclo[3.1.0]hexane-3-carboxylic acid], the IC50 against human NaV1.7 is 1900 nM; on NaV1.5 (read-out: Nav1.5) it was 13000 nM; on hNav1.7, 340 nM.

`O=C(NO)[C@@H]1C[C@@H](F)CN1C(=O)c1cc(C2CC2)c(OCC23CC4CC(CC(C4)C2)C3)cc1F` [Example 199, 1-(4-(adamantan-1-ylmethoxy)-5-cyclopropyl-2-fluorobenzoyl)-4-fluoro-N-hydroxypyrrolidine-2-carboxamide]: the IC50 on human NaV1.7 was found to be 3600 nM; on NaV1.5 (read-out: Nav1.5), 15000 nM; at hNav1.7, 470 nM.

In the case of `O=C(O)[C@@H]1CCCN1C(=O)c1cc(C2CC2)c(OCC2CCN([C@H](c3cc(Cl)cc(Cl)c3)C(F)(F)F)CC2)cc1F` (single isomer, unassigned) [Example 123a], the IC50 against human NaV1.7 turned out to be 490 nM; on NaV1.5 (read-out: Nav1.5), 7100 nM; on hNav1.7 it was 48 nM.

In the case of `O=C(O)C[C@@H]1CCCN1C(=O)c1cc(C2CC2)c(OCC23CC4CC(CC(C4)C2)C3)cc1F` [Example 206, 2-((S)-1-(4-(adamantan-1-ylmethoxy)-5-cyclopropyl-2-fluorobenzoyl)pyrrolidin-2-yl)acetic acid], the IC50 is 2600 nM against human NaV1.7, 16000 nM on NaV1.5 (read-out: Nav1.5) and 260 nM on hNav1.7.

For `O=C(NC1(C(=O)O)CC1)c1cc(C2CC2)c(OCC23CC4CC(CC(C4)C2)C3)cc1F` [Example 6, 1-(4-(adamantan-1-ylmethoxy)-5-cyclopropyl-2-fluorobenzamido)-cyclopropanecarboxylic acid], the IC50 at human NaV1.7 came out at 532 nM; at NaV1.5 (read-out: Nav1.5), 2120 nM; on hNav1.7, 3580 nM.

In the case of `C[C@H]1CCN(C(=O)c2cc(C3CC3)c(OCC3CCN([C@@H](c4cc(Cl)cc(Cl)c4)C(F)(F)F)CC3)cc2F)[C@@H]1C(=O)O` (single isomer, unassigned) [Example 121b], the IC50 against human NaV1.7 came out at 880 nM; on NaV1.5 (read-out: Nav1.5), 17000 nM; at hNav1.7 it was 18 nM.

On to `C[C@H]1OCN(C(=O)c2cc(C3CC3)c(OCC3CCN([C@H](c4cc(Cl)cc(Cl)c4)C(F)(F)F)CC3)cc2F)[C@@H]1C(=O)O` (single isomer, unassigned) [Example 138a], for which the values for the IC50 on human NaV1.7, at NaV1.5 (read-out: Nav1.5) and at hNav1.7 were 300 nM, 13000 nM and 6.9 nM, respectively.

Regarding `CC(c1cc(Cl)cc(Cl)c1)N1CCC(COc2cc(F)c(C(=O)N3C[C@H](F)C[C@H]3C(=O)O)cc2C2CC2)CC1` (stereo partly drawn) [Example 91, (2S, 4R)-1-(5-cyclopropyl-4-((1-(1-(3,5-dichlorophenyl)ethyl)piperidin-4-yl)methoxy)-2-fluorobenzoyl)-4-fluoropyrrolidine-2-carboxylic acid], the IC50 against human NaV1.7 worked out at 300 nM; on NaV1.5 (read-out: Nav1.5) it was 23000 nM; on hNav1.7, 15 nM.

As to `O=C(O)[C@@H]1C[C@@H](F)CN1C(=O)c1cc(C2CC2)c(OCC2(F)CCN(Cc3ccc(F)c(Cl)c3)CC2)cc1F` [Example 128, (2S,4R)-1-(4-((1-(3-chloro-4-fluorobenzyl)-4-fluoropiperidin-4-yl)methoxy)-5-cyclopropyl-2-fluorobenzoyl)-4-fluoropyrrolidine-2-carboxylic acid], the IC50 at human NaV1.7 was 710 nM; at NaV1.5 (setting [1]), at least 30000 nM; at hNav1.7 it was 87 nM.

As to `CC1(O)C[C@@H](C(=O)O)N(C(=O)c2cc(C3CC3)c(OCC34CC5CC(CC(C5)C3)C4)cc2F)C1` (stereo partly drawn) [Example 218, (2S)-1-(4-(adamantan-1-ylmethoxy)-5-cyclopropyl-2-fluorobenzoyl)-4-hydroxy-4-methylpyrrolidine-2-carboxylic acid], the values for the IC50 on human NaV1.7, on NaV1.5 (read-out: Nav1.5) and at hNav1.7 were 1600 nM, 24000 nM and 230 nM, respectively.

With `O=C(O)[C@@H]1[C@@H](O)CCN1C(=O)c1cc(C2CC2)c(OCC23CC4CC(CC(C4)C2)C3)cc1F` [Example 75, (2S,3S)-1-(4-(adamantan-1-ylmethoxy)-5-cyclopropyl-2-fluorobenzoyl)-3-hydroxypyrrolidine-2-carboxylic acid], the IC50 amounted to 1300 nM on human NaV1.7, 25000 nM on NaV1.5 (read-out: Nav1.5) and 600 nM at hNav1.7.

With `O=C(O)[C@@H]1C[C@H](O)CN1C(=O)c1cc(C2CC2)c(OCC23CC4CC(CC(C4)C2)C3)cc1F` [Example 161, (2S,4S)-1-[4-(1-adamantylmethoxy)-5-cyclopropyl-2-fluoro-benzoyl]-4-hydroxy-pyrrolidine-2-carboxylic acid], the IC50 was 980 nM against human NaV1.7, at least 30000 nM at NaV1.5 (setting [1]) and 390 nM on hNav1.7.

With `CC(C)COc1ncc(Oc2cc(F)c(C(=O)N3CCC[C@H]3C(=O)O)cc2Cl)cc1Cl` [Example 97, 5-chloro-4-((5-chloro-6-isobutoxypyridin-3-yl)oxy)-2-fluorobenzoyl)-L-proline trifluoroacetic acid salt], the figures for the IC50 on human NaV1.7, against NaV1.5 (setting [1]) and at hNav1.7 were 570 nM, at least 30000 nM and 440 nM, respectively.

Consider `O=C(N[C@H](C(=O)O)C1CC1)c1cc(C2CC2)c(OCC2CCN(C(c3cc(Cl)cc(Cl)c3)C(F)(F)F)CC2)cc1F` (stereo partly drawn) [Example 53, (2S)-2-cyclopropyl-2-(5-cyclopropyl-4-((1-(1-(3,5-dichlorophenyl)-2,2,2-trifluoroethyl)piperidin-4-yl)methoxy)-2-fluorobenzamido)acetic acid], for which the results for the IC50 on human NaV1.7, on NaV1.5 (read-out: Nav1.5) and on hNav1.7 were 2000 nM, 14000 nM and 17 nM, respectively.
